Test results as given in patent US20220226425A1, “METHOD OF TREATING MELANOCORTIN-4 RECEPTOR PATHWAY-ASSOCIATED DISORDERS” (RHYTHM PHARMACEUTICALS, INC., priority 2015, published 2022).
Where a SMILES comes first, the peptide text is derived from it. Bridges are numbered along the chain shown (N, C = ends). [ ]: non-standard residue; d: D form. Pen = CC(C)(S)[C@H](N)C(=O)O; hCys = N[C@@H](CCS)C(=O)O

Assays:
Assay in all cases: cAMP accumulation via β-galactosidase (β-Gal) reporter system (cAMP Hunter GPCR assay)
Assay type in all cases: cell-based
MC-5R = MC-5R (Homo sapiens, UniProt P33032); conditions: for Selectivity Ratios MC4R/MC5R: ratio of EC-50 values, MC-5R versus MC-4R
Sequence of MC-5R (P33032 whole entry): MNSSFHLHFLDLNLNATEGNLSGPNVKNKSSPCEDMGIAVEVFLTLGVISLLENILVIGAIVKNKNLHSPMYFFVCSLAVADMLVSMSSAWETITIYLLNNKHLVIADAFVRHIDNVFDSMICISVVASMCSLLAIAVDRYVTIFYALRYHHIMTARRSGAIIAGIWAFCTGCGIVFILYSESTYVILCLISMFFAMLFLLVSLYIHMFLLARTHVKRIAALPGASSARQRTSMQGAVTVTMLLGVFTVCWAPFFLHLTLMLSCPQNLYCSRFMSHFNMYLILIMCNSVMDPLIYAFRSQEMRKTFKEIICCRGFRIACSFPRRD
Description: (§1) cAMP Accumulation Measurement via a β-Galactosidase (β-Gal) Reporter System
(§2) A chemiluminescence readout system that uses an enzyme fragment complementation (EFC) system with β-galactosidase (β-Gal) as the functional reporter system was used. This assay system for various melanocortin receptor systems is commercially available (cAMP Hunter GPCR assay system, Discoverx Corp, Fremont, Calif.). This assay utilizes the β-Gal enzyme that is split into two complementary portions; EA for Enzyme Acceptor and ED for Enzyme Donor. In the assay, the ED portion fused to cAMP is made to compete with cAMP generated by cells for binding to a cAMP-specific antibody. The EA is then added to form active β-Gal with any unbound ED-cAMP. This active enzyme then converts a chemiluminescent substrate to generate an output signal that is recorded on a standard microplate reader. Briefly, 10000 cells per well are plated overnight and each well (cells incubated with 10 μl assay buffer) is then incubated with 4X serial concentration of the test compound in the cell assay buffer (5 μL) and cAMP antibody reagent (5 μL) for 30 min at 37° C. The cell lysis buffer (20 μL) containing ED-cAMP coupled enzyme fragment and the reporter substrate (Emerald II-Galacton Star, 5:1) is then added and incubated for 60 min at room temperature. Next, 20 μL of EA β-Gal fragment reagent is added. After further incubation for 120 min at room temperature, the chemiluminescence is measured by a plate reader (Envision).

MC-3R = MC-3R (Homo sapiens, UniProt P41968); conditions: for EC50: cAMP agonist readout, MC-3R, read-out: EC-50 (nM) MC-3R; for Selectivity Ratios MC4R/MC3R: ratio of EC-50 values, MC-3R versus MC-4R
Sequence of MC-3R (P41968 whole entry): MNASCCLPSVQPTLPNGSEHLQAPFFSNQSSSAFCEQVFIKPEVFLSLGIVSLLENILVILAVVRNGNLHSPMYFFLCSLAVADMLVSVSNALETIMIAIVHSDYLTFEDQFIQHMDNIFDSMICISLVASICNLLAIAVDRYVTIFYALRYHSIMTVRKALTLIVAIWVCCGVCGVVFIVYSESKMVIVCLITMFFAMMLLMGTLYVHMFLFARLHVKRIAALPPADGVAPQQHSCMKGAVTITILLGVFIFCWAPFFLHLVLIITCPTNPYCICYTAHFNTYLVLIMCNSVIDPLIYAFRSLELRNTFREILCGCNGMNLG
Description: as §1
as §2, with “This active enzyme then converts a chemiluminescent substrate to generate an output signal that is recorded on a standard microplate reader.” left out

MC-1R = MC-1R (Homo sapiens, UniProt Q01726); conditions: ratio of EC-50 values, MC-1R versus MC-4R
Sequence of MC-1R (Q01726 whole entry): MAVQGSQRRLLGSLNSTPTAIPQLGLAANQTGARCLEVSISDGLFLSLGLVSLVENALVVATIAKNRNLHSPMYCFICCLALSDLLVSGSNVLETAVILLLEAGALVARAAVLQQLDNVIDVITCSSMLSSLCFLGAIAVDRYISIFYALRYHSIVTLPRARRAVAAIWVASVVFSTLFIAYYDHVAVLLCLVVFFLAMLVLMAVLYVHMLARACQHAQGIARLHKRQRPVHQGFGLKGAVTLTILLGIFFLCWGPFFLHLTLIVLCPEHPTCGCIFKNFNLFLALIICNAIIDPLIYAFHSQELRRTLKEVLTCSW
Description: as §1
as §2, with “This active enzyme then converts a chemiluminescent substrate to generate an output signal that is recorded on a standard microplate reader.” left out

SMILES	Selectivity Ratios MC4R/MC5R (MC-5R)	EC50 (MC-3R) [nM]	Selectivity Ratios MC4R/MC3R (MC-3R)	Selectivity Ratios MC4R/MC1R (MC-1R)	EC50 (MC-5R; cAMP agonist readout, MC-5R, read-out: EC-50 (nM) MC-5R) [nM]
CC(=O)N[C@@H](CCCNC(=N)N)C(=O)N[C@H]1CCSSC(C)(C)[C@@H](C(N)=O)NC(=O)[C@H](Cc2c[nH]c3ccccc23)NC(=O)[C@H](CCCNC(=N)N)NC(=O)[C@@H](Cc2ccccc2)NC(=O)[C@H](CC(N)=O)NC1=O [Compound 001554C, Ac-Arg-(hCys-Asn-D-Phe-Arg-Trp-Pen)-NH2] (Ac-R[hCys]N[dF]RW[Pen]-NH2; disulfide 2-7)	459.17	> 3000	>1872.97	146.75	
CC(=O)N[C@@H](CCCNC(=N)N)C(=O)N[C@H]1CCSSC(C)(C)[C@@H](C(N)=O)NC(=O)[C@H](Cc2c[nH]c3ccccc23)NC(=O)[C@H](CCCNC(=N)N)NC(=O)[C@@H](Cc2ccccc2)NC(=O)[C@H](CCC(N)=O)NC1=O [Compound 001555C, Ac-Arg-(hCys-Gln-D-Phe-Arg-Trp-Pen)-NH2] (Ac-R[hCys]Q[dF]RW[Pen]-NH2; disulfide 2-7)	639.81		2.68	244.35	
CC(=O)N[C@@H](CCCNC(=N)N)C(=O)N[C@H]1CCSSC(C)(C)[C@@H](C(N)=O)NC(=O)[C@H](Cc2c[nH]c3ccccc23)NC(=O)[C@H](CCCNC(=N)N)NC(=O)[C@@H](Cc2ccccc2)NC(=O)[C@H](CO)NC1=O [Compound 001556C, Ac-Arg-(hCys-Ser-D-Phe-Arg-Trp-Pen)-NH2] (Ac-R[hCys]S[dF]RW[Pen]-NH2; disulfide 2-7)	916.48	> 3000	>1615.55	123.06	
CC(=O)N[C@@H](CCCNC(=N)N)C(=O)N[C@H]1CCSSC(C)(C)[C@@H](C(N)=O)NC(=O)[C@H](Cc2c[nH]c3ccccc23)NC(=O)[C@H](CCCNC(=N)N)NC(=O)[C@@H](Cc2ccccc2)NC(=O)[C@H]([C@@H](C)O)NC1=O [Compound 001574C, Ac-Arg-(hCys-Thr-D-Phe-Arg-Trp-Pen)-NH2] (Ac-R[hCys]T[dF]RW[Pen]-NH2; disulfide 2-7)	1846.64	> 3000	>2705.95	465.77	
CC(=O)N[C@@H](CCCNC(=N)N)C(=O)N[C@H]1CCC(=O)NC[C@@H](C(N)=O)NC(=O)[C@H](Cc2c[nH]c3ccccc23)NC(=O)[C@H](CCCNC(=N)N)NC(=O)[C@@H](Cc2ccccc2)NC(=O)[C@H](CCC(N)=O)NC1=O [Compound 001576C, Ac-Arg-(Glu-Gln-D-Phe-Arg-Trp-Dpr)-NH2]	101.41		1.75	35.57	
CC(=O)N[C@@H](CCCNC(=N)N)C(=O)N[C@H]1CSSC[C@@H](C(N)=O)NC(=O)[C@H](Cc2c[nH]c3ccccc23)NC(=O)[C@H](CCCNC(=N)N)NC(=O)[C@@H](Cc2ccccc2)NC(=O)[C@H](Cc2c[nH]cn2)NC(=O)[C@@H](C)NC1=O [RM-493, reference compound]					1680
